Data as given in PMC7330904 (ACS Omega, 2020).

Tests used:
calf thymus DNA (CT-DNA) = conditions: cited from earlier work
Hep-G2 cells = assay: APOPercentage apoptosis assay, Hep-G2; format: cell-based, human; conditions: Hep-G2, 24 h, IC50 of complexes, flow cytometry, vs untreated cells

SMILES	binding constant Kb of known DNA intercalator (calf thymus DNA (CT-DNA))	induction of apoptosis (APOPercentage dye uptake) (Hep-G2 cells)
COc1cccc2c1C(=O)c1c(O)c3c(c(O)c1C2=O)C[C@@](O)(C(=O)CO)C[C@@H]3O[C@H]1C[C@H](N)[C@@H](O)[C@H](C)O1 [Epirubicin]	3.4 × 10^4 M^–1	–
Nc1ccc2cc3ccc(N)cc3nc2c1 [Proflavine]	2.32 × 10^4 M^–1	–
N.N.[Cl][Pt][Cl] [Cisplatin]	–	but not Hep-G2 cells
CC[n+]1c(-c2ccccc2)c2cc(N)ccc2c2ccc(N)cc21 [ethidium bromide]	1.4 × 10^6 M^–1	–
